The results in this text go back to patent publication US9273043B2, “TRPV1 antagonists including dihydroxy substituent and uses thereof” (Purdue Pharma L.P., priority 2011, dated 2016).

The target of test [1] is T1, human TRPV1 (Homo sapiens (Human), UniProt Q8NER1). As to the kind of experiment: pH-based assay, Protocol 2, TRPV1/CHO cells (hpH-CHO), Fura-2 Ca2+ influx. The test is classed as cell-based. As to conditions: pH 5.0-5.1 (H2SO4), mean ± SEM. Here is the method: For Protocol 2, a Chinese Hamster Ovary cell line (CHO) that has been engineered to constitutively express human recombinant TRPV1 was used (TRPV1/CHO cells). The TRPV1/CHO cell line was generated as described below.
T1 sequence (Q8NER1 whole entry, looked up): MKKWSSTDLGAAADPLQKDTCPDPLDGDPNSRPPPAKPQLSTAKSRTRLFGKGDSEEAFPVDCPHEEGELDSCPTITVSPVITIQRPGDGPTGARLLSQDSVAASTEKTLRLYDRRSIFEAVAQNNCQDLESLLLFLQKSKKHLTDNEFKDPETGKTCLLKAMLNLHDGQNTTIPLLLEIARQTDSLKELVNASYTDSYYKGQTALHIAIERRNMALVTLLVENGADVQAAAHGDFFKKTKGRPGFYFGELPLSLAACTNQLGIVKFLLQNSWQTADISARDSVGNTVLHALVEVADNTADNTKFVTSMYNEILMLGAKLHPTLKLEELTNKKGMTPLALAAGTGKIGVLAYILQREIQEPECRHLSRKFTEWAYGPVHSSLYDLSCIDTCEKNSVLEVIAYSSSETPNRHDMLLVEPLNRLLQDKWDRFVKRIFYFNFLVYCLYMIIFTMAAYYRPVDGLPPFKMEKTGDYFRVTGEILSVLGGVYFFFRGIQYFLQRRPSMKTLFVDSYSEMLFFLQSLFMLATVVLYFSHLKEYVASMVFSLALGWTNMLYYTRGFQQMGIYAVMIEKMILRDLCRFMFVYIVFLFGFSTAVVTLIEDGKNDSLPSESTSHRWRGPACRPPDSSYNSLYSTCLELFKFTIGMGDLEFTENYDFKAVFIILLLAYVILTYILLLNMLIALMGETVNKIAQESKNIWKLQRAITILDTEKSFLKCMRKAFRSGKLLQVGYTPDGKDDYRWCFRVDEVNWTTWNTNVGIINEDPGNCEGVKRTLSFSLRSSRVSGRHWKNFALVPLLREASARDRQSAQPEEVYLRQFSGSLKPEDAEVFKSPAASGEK
TRPV1/CHO cells were seeded in the 96-well clear-bottom black-wall plate (Nunc) at densities of 1-2×10^4 cells/well and grown in 100 μL of culture medium (alpha-MEM supplemented with 10% FBS, 20 mM HEPES, 1 mg/mL geneticin and 1% antibiotic-antimycotic mixed stock solution) for 1-2 days before the experiment.
(1) Culture medium was removed using an 8-channel-pipette (Rainin, USA) from the 96-well plate and the wells were refilled with 100 μL of loading buffer (20 mM HEPES, 115 mM NaCl, 5.4 mM KCl, 0.8 mM MgCl2, 1.8 mM CaCl2, 13.8 mM D-glucose, 2.5 mM probenecid, pH 7.4) containing 5 μM Fura-2 AM (Dojin, Japan).
(2) The 96-well plate was incubated at 37° C. for 45 min.
(3) The loading buffer was removed from each well. The cells were subsequently washed twice with 150 μL of measuring buffer (20 mM HEPES, 115 mM NaCl, 5.4 mM KCl, 0.8 mM MgCl2, 5.0 mM CaCl2, 13.8 mM D-glucose, 0.1% BSA, pH 7.4) (no probenecid). The wells were then refilled with 80 μL of measuring buffer.
(4) After an incubation at 4° C. for 15 min, the 96-well plate was transferred to a model FDSS-3000 plate reader apparatus (Hamamatsu Photonics K.K., Japan).
(5) The Fura-2 fluorescent intensity was monitored at a wavelength of 340 nm and at 380 nm, respectively, at a rate of 0.5 Hz for a total of 240 seconds. After 16 time points (32 sec) of baseline detection, 20 μL of agonist solution was added to each well. The final volume was 100 μL/well.
(6) Fluorescence intensity ratio refers to the fluorescence intensity at 340 nm over the fluorescence intensity at 380 nm at a particular time point. The baseline was set as the average of the fluorescent intensity ratios for the first 16 time points before the addition of agonist solution. The maximum response was the highest fluorescent intensity ratio during the 60 time points following addition of agonist solution.
(7) Maximal signal ratios from each well were calculated as output data using the FDSS-3000 analysis program. Data were analyzed using Excel (Microsoft) and XLfit (idbs) software.
In an “agonist plate,” two different agonist solutions with different H2SO4 concentrations were used for the pH assay (see, e.g., FIG. 3A of U.S. Patent Application Publication No. US 2009/0170868 A1). For the first half of a 96-well plate one agonist solution was used; for the second half the other agonist solution was used. The agonist solutions were obtained by diluting sulfuric acid (1M H2SO4) with measuring buffer. The concentrations for the two agonist solutions were determined as described above in Section 2 of Protocol 2.
The sulfuric acid concentrations between the two agonist solutions differed by 0.5 mM. In the experiment described in Section 2 of Protocol 2, the sulfuric acid concentrations in the agonist solutions were determined to be 16 mM and 16.5 mM, respectively. After 1:4 dilution of the agonist solutions, the final sulfuric acid concentration was 3.2 mM and 3.3 mM, respectively. The resulting pH value for the pH assay was 5.0 to 5.1.
Test compounds were dissolved in DMSO to yield 1 mM stock solutions. The stock solutions were further diluted using DMSO in […] serial dilution steps with 6 points (1000, 250, 62.5, 15.625, 3.9062, and 0.977 μM). The thereby-obtained solutions were further diluted in measuring buffer (1:100) as 10× stock serial dilutions with a DMSO concentration of 1%. 10 μL of a 10× stock was added into each well of an “antagonist plate” (see step 3.3.(4) below). Thus, the final concentrations of antagonists was as follows: 0.977, 3.906, 15.63, 62.5, 250, and 1000 nM containing 0.1% DMSO (see, e.g., FIG. 3B of U.S. Patent Application Publication No. US 2009/0170868 A1).
Steps (1) and (2) of this Assay were the same as steps 2.2.(1) and 2.2.(2), respectively, of Protocol 2. […]

Test [2] has as its target T1, human TRPV1. In words: Capsaicin-based assay, Protocol 2, TRPV1/CHO cells (hCAP-CHO), Fluo-4 FLIPR. The test is classed as cell-based. The following applies: 100 nM capsaicin, mean ± SEM. An excerpt:
The TRPV1/CHO cell line was generated as described below. […] The resulting PCR products were purified from agarose gels using Gel Band Purification Kit (GE Healthcare Bioscience) and were subcloned into pCR-Blunt vector (Invitrogen). The cloned cDNA was fully sequenced using a fluorescent dye-terminator reagent (BigDye Terminator ver3.1 Cycle Sequencing Kit, Applied Biosystems) and ABI Prism 3100 genetic analyzer (Applied Biosystems). The pCR-Blunt vector containing the hTRPV1 cDNA was subjected to restriction digestion with EcoR1. The restriction fragment was subcloned into expression vector pcDNA3.1(-) (Invitrogen) and named pcDNA3.1(-)-hVR1 plasmid. The sequence of the cDNA encoding TRPV1 is available at GenBank accession number AJ277028. […] The cells were transfected with the pcDNA3.1(-)-hVR1 plasmid using FuGENE6 (Roche) according to the manufacturer's protocol. 24 hr after transfection, neomycin-resistant cells were selected using 1 mg/mL G418 (Nacalai Tesque). […] The cells expressing hTRPV1 were cultured in the growth medium supplemented with 1 mg/mL G418. […] Capsaicin-based Assay: […] Subsequently, the cells were loaded by incubation in 0.1 mL of wash buffer containing Fluo-4 at 3 μM final concentration. After 1 hour, the cells were washed twice with 0.2 mL wash buffer and resuspended in 0.1 mL wash buffer. The plates were then transferred to a Fluorescence Imaging Plate Reader (Molecular Devices). Fluorescence intensity was monitored for 15 seconds to establish a baseline. […] The final concentration of the compound was adjusted to range from 100 μM to 1.5625 μM. […] Data were collected over the entire time course and analyzed using Excel and the curve-fitting formula GraphPad Prism.

Turning to `C[C@H](O)[C@@H](O)c1cnc(N2CCN(C(=O)Nc3nc4ccccc4s3)C[C@@H]2C)c(F)c1` [B122(k), (S)—N-(benzo[d]thiazol-2-yl)-4-{5-[(1S,2S)-1,2-dihydroxypropyl]-3-fluoropyridin-2-yl}-3-methylpiperazine-1-carboxamide], the IC50 worked out at 2040 ± 245 nM in test [1] and 502 ± 128 nM in test [2].
Regarding `C[C@@H]1CN(C(=O)Nc2nc3ccccc3s2)CCN1c1ncc([C@@H](O)[C@@H](C)O)cc1F` [B122(o), (R)—N-(benzo[d]thiazol-2-yl)-4-{5-[(1R,2R)-1,2-dihydroxypropyl]-3-fluoropyridin-2-yl}-3-methylpiperazine-1-carboxamide], the IC50 in test [1] came out at 6880 nM; in test [2], 199 ± 38 nM.
Take `C[C@@H](O)[C@H](O)c1cnc(N2CCN(C(=O)Nc3nc4ccccc4s3)C[C@@H]2C)c(F)c1` [B122(p), (S)—N-(benzo[d]thiazol-2-yl)-4-{5-[(1R,2R)-1,2-dihydroxypropyl]-3-fluoropyridin-2-yl}-3-methylpiperazine-1-carboxamide]: the results for the IC50 in test [1] and in test [2] were 1020 nM and 506 ± 155 nM, respectively.
Regarding `C[C@H](O)[C@@H](O)c1cnc(N2CCN(C(=O)Nc3nc4ccc(F)cc4s3)C[C@H]2C)c(F)c1` [B125(j), (R)-4-{5-[(1S,2S)-1,2-dihydroxypropyl]-3-fluoropyridin-2-yl}-N-(6-fluorobenzo[d]thiazol-2-yl)-3-methylpiperazine-1-carboxamide], the IC50 came to 303 nM in test [1] and 194 ± 49 nM in test [2].
The like results for `C[C@@H]1CN(C(=O)Nc2nc3ccc(F)cc3s2)CCN1c1ncc([C@@H](O)[C@@H](C)O)cc1F` [B125(o), (R)-4-{5-[(1R,2R)-1,2-dihydroxypropyl]-3-fluoropyridin-2-yl}-N-(6-fluorobenzo[d]thiazol-2-yl)-3-methylpiperazine-1-carboxamide] were, in that order, 398 ± 152 nM and 309 ± 105 nM.
As to `C[C@@H](O)[C@H](O)c1cnc(N2CCN(C(=O)Nc3nc4ccc(F)cc4s3)C[C@@H]2C)c(F)c1` [B125(p), (S)-4-Z{5-[(1R,2R)-1,2-dihydroxypropyl]-3-fluoropyridin-2-yl}-N-(5-fluorobenzo[d]thiazol-2-yl)-3-methylpiperazine-1-carboxamide], the IC50 worked out at 211 ± 50 nM in test [1] and 171 ± 1 nM in test [2].
Consider `C[C@H](O)[C@@H](O)c1cnc(N2CCN(C(=O)Nc3nc4cc(F)ccc4s3)C[C@H]2C)c(F)c1` [B155(j), (R)-4-{5-[(1S,2S)-1,2-dihydroxypropyl]-3-fluoropyridin-2-yl}-N-(5-fluorobenzo[d]thiazol-2-yl)-3-methylpiperazine-1-carboxamide], for which the results for the IC50 in test [1] and in test [2] were 439 ± 71 nM and 344 ± 116 nM, respectively.
In the case of `C[C@@H]1CN(C(=O)Nc2nc3cc(F)ccc3s2)CCN1c1ncc([C@@H](O)[C@@H](C)O)cc1F` [B155(o), (R)-4-{5-[(1R,2R)-1,2-dihydroxypropyl]-3-fluoropyridin-2-yl}-N-(5-fluorobenzo[d]thiazol-2-yl)-3-methylpiperazine-1-carboxamide], the results for the IC50 in test [1] and in test [2] were 1230 ± 595 nM and 249 ± 34 nM, respectively.
`C[C@@H]1CN(C(=O)Nc2nc3cc(F)c(F)cc3s2)CCN1c1ncc([C@@H](O)[C@@H](C)O)cc1F` [B158(o), (R)—N-(5,6-difluorobenzo[d]thiazol-2-yl)-4-{5-[(1R,2R)-1,2-dihydroxypropyl]-3-fluoropyridin-2-yl}-3-methylpiperazine-1-carboxamide]: the results for the IC50 in test [1] and in test [2] were 171 ± 29 nM and 146 ± 52 nM, respectively.
